In one series the test system is MDCK-MDR1 cells. Description: in vitro. The settings on record: dog, MDCK-MDR1, 1 h, 5 μM. The procedure: (§1) MDCK-MDR1 is a stable-transfected cell line originating from MDCK cells, with over-expression of human MDR1 gene. The cell line is widely used for the identification and characterization of P-gp substrates and inhibitors.
(§2) MDCK-MDR1 cells were plated into 96-well Millipore Millicell-96 plates at 7,500 cells/75 μL/well and incubated for three days at 37° C. with 5% CO2. Cells were washed with Hank's Balanced Salt Solution (HBSS) with 5 mM HEPES for 30 minutes before starting the experiment. Test compound solutions were prepared by diluting DMSO stock into HBSS buffer, resulting in a final DMSO concentration of 0.1%. Prior to the experiment, cell monolayer integrity was verified by […] electrical resistance (TEER). Transport experiment was initiated by adding test compounds to the apical (75 μL) or basal (250 μL) side. Transport plates were incubated at 37° C. in a humidified incubator with 5% CO2. Samples were taken from the donor and acceptor compartments after one hour and analyzed by liquid chromatography with tandem mass spectrometry (LC/MS/MS).
(§3) Digoxin was used as reference control.
(§4) Apparent permeability (Papp) values were calculated using the following equation: Papp=(dQ/dt)/A/Co; where dQ/dt is the initial rate of amount of test compound transported across cell monolayer, A is the surface area of the filter membrane, and Co is the initial concentration of the test compound, calculated for each direction using a 4-point calibration curve by LC/MS/MS.
(§5) Net flux ratio between the two directional transports was calculated by the following equation: Ratio=Papp, B-A/Papp, A-B; where Papp, B-A and Papp, A-B represent the apparent permeability of test compound from the basal-to-apical and apical-to-basal side of the cellular monolayer, respectively.
(§6) Recovery was calculated based on the compound concentration at the end of the experiment, compared to that at the beginning of the experiment, adjusted for volumes.
(§7) A net flux ratio greater than two was considered a positive result for substrate determination. […] If the addition of a known P-gp inhibitor to the experiment reduces the net flux ratio by a significant amount (more than 50% reduction or reduces the ratio to close to unity), it is likely that the compound tested is a P-gp substrate.

In another series the test system is P-gp (human MDR1). Description: in vitro. Conditions: dog; for Papp A→B at 1 h, 5 μM / Papp B→A at 1 h, 5 μM: MDCK-MDR1, Papp. As for the experimental part:
as §1, §2, §3, §4, §5, §6, §7

For another series, the target named is T1, MEK1 (Homo sapiens, UniProt Q02750).
T1 construct: N-terminal His-tagged recombinant human full length protein; His (N); purchased Invitrogen PV3303; host or cells: insect cells
T1 sequence (Q02750 whole entry): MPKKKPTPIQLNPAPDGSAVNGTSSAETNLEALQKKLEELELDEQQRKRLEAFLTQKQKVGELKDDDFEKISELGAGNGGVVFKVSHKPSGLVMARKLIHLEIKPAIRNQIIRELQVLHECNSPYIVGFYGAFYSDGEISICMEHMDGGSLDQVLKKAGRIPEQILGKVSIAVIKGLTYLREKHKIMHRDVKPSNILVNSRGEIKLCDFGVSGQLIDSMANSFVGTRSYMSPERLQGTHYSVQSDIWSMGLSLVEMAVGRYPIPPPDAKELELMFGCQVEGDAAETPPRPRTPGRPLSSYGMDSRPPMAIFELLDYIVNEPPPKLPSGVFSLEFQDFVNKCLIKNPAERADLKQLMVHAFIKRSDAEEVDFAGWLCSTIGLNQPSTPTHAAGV
Description: MEK inhibition assay, Biological Example 1a (33P-ATP, P81 filter-binding). Conditions: read-out: Assay 1: biochemical MEK IC50. The procedure: MEK1 inhibitory activity of compounds were tested using the following procedure. […] Activated in vitro by RAF1. MW=49.2 kDa, GenBank Accession No. NP_002746. • Substrate: 5 μM ERK2 (K52R), • Kinase-dead mutant, (GenBank Accession No. NM_0011949), aa2-358 with N-terminal His6 tag, MW=43.63 kDa, expressed in E. coli.
The substrate was prepared in freshly prepared Reaction Buffer. The kinase was delivered into the substrate solution and gently mixed. Test compounds were delivered in 100% DMSO into the kinase reaction mixture by Acoustic technology (Echo550; nanoliter range), and incubated for 20 min at room temperature. ^33P-ATP was delivered into the reaction mixture to initiate the reaction. The reaction mixture was incubated for 2 hours at room temperature. Kinase activity was detected by P81 filter-binding method.

A word on the efflux ratio: it is the permeability from basolateral to apical divided by that in the opposite direction, in the common usage. As usually defined, the Papp A→B is the apparent permeability from the apical to the basolateral side of a cell layer. In general, Papp B→A refers to how fast a substance crosses the layer from the basolateral side. The IC50 is the concentration that gives 50% inhibition.

SMILES strings stand for the structures.

As for `Cn1c(Nc2ccc(I)cc2F)c(C(=O)NOCCO)c2cccnc21` [Example 2, 2-((2-Fluoro-4-iodophenyl)amino)—N-(2-hydroxyethoxy)-1-methyl-1H-pyrrolo[2,3-b]pyridine-3-carboxamide], in the series on MDCK-MDR1 cells, the “Papp, A-B Value” amounted to 47.8 ×10⁻⁶ cm/s; the “Papp, B-A Value” amounted to 41.3 ×10⁻⁶ cm/s; the “Recover Rate” value amounted to 92%. Besides, the efflux ratio at 1 h, 5 μM in the series on P-gp (human MDR1) (MDCK-MDR1) was found to be 0.9. The Papp A→B at 1 h, 5 μM in the series with P-gp (human MDR1) (A-B Mean) came to 49.1 ×10⁻⁶ cm/s. This compound had a Papp A→B at 1 h, 5 μM with P-gp (human MDR1) (A-B Value) of 50.5 ×10⁻⁶ cm/s. For the same compound, the basolateral-to-apical permeability (Papp B→A) at 1 h, 5 μM with P-gp (human MDR1) (B-A Mean) is 41.8 ×10⁻⁶ cm/s. This compound registered an apparent permeability from basolateral to apical (Papp B→A) at 1 h, 5 μM in the series with P-gp (human MDR1) (B-A Value) of 42.3 ×10⁻⁶ cm/s. In addition, at MEK1, the IC50 came to 246 nM.

For the origin of these results see patent publication US11161845B2, “Pyrrolopyridine-aniline compounds for treatment of dermal disorders” (Nflection Therapeutics, Inc., priority 2017, dated 2021).
